Experimental data from patent US20150038545A1, “HYDROXYPHENYL PYRROLE COMPOUNDS CONTAINING AN HYDROXAMIC ACID AS HDAC INHIBITORS AND MEDICINAL APPLICATIONS THEREOF” (UNIVERSIDAD DEL PAÍS VASCO, priority 2011, published 2015).

How the values were obtained:
SK-MEL-5 = test: Cancer cell growth inhibition (CellTiter-Glo), SK-MEL-5; assay type: cell-based, Human; details: Homo sapiens; Melanoma, SK-MEL-5, 72 h treatment
Procedure: (§1) Cell culture-based assays were used to evaluate the ability of compounds of the invention to inhibit cancer cell growth.
(§2) Cells were obtained from the American Type Culture Collection (ATCC). Cells were cultured at 37° C. with 5% CO2 in the appropriate growth medium (see table below), and harvested respectively during the logarithmic growth period and counted with hemocytometer. The cell viability was examined by trypan blue exclusion. Cell concentrations were adjusted to 5.56×10^4 cells/ml with respective medium.
(§3) Stock solutions of test compounds and positive drugs Doxorubicin (Zhejiang, Haizheng, China), Cisplatin (Nanjing Zhiyao, China) and Mitomycin (Zhejiang, Haizheng, China) were prepared in dimethyl sulphoxide (DMSO) or PBS at 20 mM.
(§4) In order to determine the IC50 for each compound, experiments were carried out in 96-well plates and the cell lines seeded at a density of 5,000 cells/well. […] All treatments were performed in triplicate. 10 μl of drug solution was added to each well and incubated for 72 hours. At the end of the incubation, 100 μl of the CellTiter-Glo Reagent were added to each well and the contents were mixed for 2 munites on an orbital shaker to induce cell lysis. The plate was incubated at room temperature for 10 minutes to stabilize luminiscent signal, and luminiscent was recorded. […] In order to calculate IC50 values, dose-responsive curves were fitted using nonlinear regression model with a sigmoidal dose response.

NCI-H1703 = test: Cancer cell growth inhibition (CellTiter-Glo), NCI-H1703; assay type: cell-based, Human; details: Homo sapiens; Lung Cancer, NCI-H1703, 72 h treatment
Procedure: as §1, §2, §3, §4

BT474 = test: Cancer cell growth inhibition (CellTiter-Glo), BT474; assay type: cell-based; details: Homo sapiens, BT-474; Breast Cancer, BT474, 72 h treatment
Procedure: as §1, §2, §3, §4

Human HDAC5 = target: T1, Human HDAC5 (Homo sapiens, UniProt Q9UQL6); test: In vitro HDAC5 inhibition, fluorogenic peptide assay; assay type: biochemical; details: for IC50: read-out: IC50 (nM) of enzyme activity HDAC5
T1 construct: Full length with Nterminal GST tag, MW=150 kDa; GST (N); purchased BioMol, Hamburg, Germany; host or cells: Sf9 cells, baculovirus
T1 sequence (Q9UQL6 1-1123 isoform Q9UQL6-3): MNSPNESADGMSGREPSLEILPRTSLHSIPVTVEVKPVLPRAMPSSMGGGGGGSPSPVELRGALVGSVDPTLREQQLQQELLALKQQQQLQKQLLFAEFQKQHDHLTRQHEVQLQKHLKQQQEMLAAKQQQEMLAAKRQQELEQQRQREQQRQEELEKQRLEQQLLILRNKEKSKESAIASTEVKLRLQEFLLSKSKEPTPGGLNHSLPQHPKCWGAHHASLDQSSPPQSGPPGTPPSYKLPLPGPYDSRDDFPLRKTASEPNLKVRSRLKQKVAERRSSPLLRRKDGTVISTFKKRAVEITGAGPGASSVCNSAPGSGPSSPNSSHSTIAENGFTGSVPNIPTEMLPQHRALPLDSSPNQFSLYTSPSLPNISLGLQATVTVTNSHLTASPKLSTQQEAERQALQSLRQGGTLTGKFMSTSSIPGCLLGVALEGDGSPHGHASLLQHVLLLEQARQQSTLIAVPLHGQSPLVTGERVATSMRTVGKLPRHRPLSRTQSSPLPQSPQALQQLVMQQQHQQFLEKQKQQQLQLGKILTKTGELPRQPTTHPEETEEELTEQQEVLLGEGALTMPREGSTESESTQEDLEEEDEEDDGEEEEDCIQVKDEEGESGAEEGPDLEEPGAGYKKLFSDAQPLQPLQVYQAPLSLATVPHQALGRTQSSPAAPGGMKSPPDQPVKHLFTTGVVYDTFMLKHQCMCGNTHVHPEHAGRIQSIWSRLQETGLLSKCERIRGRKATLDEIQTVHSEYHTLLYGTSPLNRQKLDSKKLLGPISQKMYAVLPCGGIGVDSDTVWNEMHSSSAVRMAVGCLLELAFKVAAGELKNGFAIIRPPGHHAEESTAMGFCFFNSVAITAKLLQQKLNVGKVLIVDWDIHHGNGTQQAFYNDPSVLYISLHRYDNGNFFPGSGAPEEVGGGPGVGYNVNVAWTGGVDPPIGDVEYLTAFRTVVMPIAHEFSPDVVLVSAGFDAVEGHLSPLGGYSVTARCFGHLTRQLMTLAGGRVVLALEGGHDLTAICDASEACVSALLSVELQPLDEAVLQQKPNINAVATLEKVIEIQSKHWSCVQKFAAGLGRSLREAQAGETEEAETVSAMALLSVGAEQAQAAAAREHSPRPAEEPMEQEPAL
Procedure: All HDAC assays were performed using acetylated AMC-labeled peptide substrate: • Substrate for isoforms HDAC1, 2, 3, 4, 5, 6, 7, 9, 10, 11 and HeLa nuclear extract assays: Acetylated fluorogenic peptide from p53 residues 379-382 (RHKKAc) (BioMol. Cat. # KI-104). • Substrate for HDAC8 assays: Acetylated fluorogenic peptide from p53 residues 379-382 (RHKAcKAc) (BioMol. Cat. # KI-178).
Enzymes: • HDAC1 assay: 75 nM Human HDAC1 (GenBank Accession No. NM_004964): Full length with C-terminal GST tag, MW=79.9 kDa, expressed by baculovirus expression system in Sf9 cells (BioMol. Cat. # SE-456). • HDAC2 assay: 5 nM Human HDAC2 (GenBank Accession No. Q92769): Full length with C-terminal His tag, MW=60 kDa, expressed by baculovirus expression system in Sf9 cells (BioMol. Cat. # SE-500). • HDAC3 assay: 2.3 nM Human HDAC3/NcoR2 (GenBank Accession No. NM_003883 for HDAC3, GenBank Accession No.NM_006312 for NcoR2): Complex of human HDAC3, full length with C-terminal His tag, MW=49.7 kDa, and human NCOR2, N-terminal GST tag, MW=39 kDa, co-expressed in baculovirus expression system (BioMol. Cat. # SE-507). • HDAC4 assay: 266 nM Human HDAC4 (GenBank Accession No. NM_006037): Amino acids 627-1085 with N-terminal GST tag, MW=75.2 kDa, expressed in baculovirus expression system (BioMol, Hamburg, Germany). • HDAC5 assay: 588 nM Human HDAC5 (GenBank Accession No. NM_001015053): Full length with Nterminal GST tag, MW=150 kDa, expressed by baculovirus expression system in Sf9 cells (BioMol, Hamburg, Germany). • HDAC6 assay: 13 nM Human HDAC6 (GenBank Accession No. BC069243): Full length with N-terminal GST tag, MW=159 kDa, expressed by baculovirus expression system in Sf9 cells (BioMol. Cat. # SE-508). • HDAC7 assay: 962 nM Human HDAC7 (GenBank Accession No. AY302468): Amino acids 518-end with N-terminal GST tag, MW=78 kDa, expressed in baculovirus expression system (BioMol, Hamburg, Germany). • HDAC8 assay: 119 nM Human HDAC8 (GenBank Accession No. NM018486): Full length, MW=42 kDa, expressed in an E. coli expression system (BioMol. […]
The reactions were carried out in a 96-well microplate for fluorometry in a 50 μl reaction volume. […] The reaction was allowed to develop for 45 minutes at 30° C. with 5% CO2; then the fluorescent signal was measured with an excitation wavelength at 360 nm and an emission wavelength at 460 nm in a microplate-reading fluorometer (GeminiXS; Molecular Devices, Sunnyvale, Calif.). […] IC50 was calculated by fitting the experimental data to a dose-response curve. […]

SMILES	IC50 (SK-MEL-5) [µM]	IC50 (NCI-H1703) [µM]	melting point [°C]	IC50 (BT474) [µM]	IC50 (Human HDAC5) [nM]	Selectivity against HDAC6 (IC50 HDACx/IC50 HDAC6) HDAC5 (Human HDAC5; IC50 HDAC5/IC50 HDAC6)
O=C(CCCCCNC(=O)c1[nH]c(-c2ccccc2)cc1-c1ccc(O)cc1)NO [Example 1, N-(6-(hydroxyamino)-6-oxohexyl)-3-(4-hydroxyphenyl)-5-phenyl-1H-pyrrole-2-carboxamide]	1.28	3.26	99 to 100	2.71	–	–
O=C(CCCCCNC(=O)c1[nH]c(-c2ccc(O)cc2)cc1-c1ccoc1)NO [Example 5, 3-(3-furyl)-N-(5-(hydroxycarbamoyl)pentyl)-5-(4-hydroxy-phenyl)-1H-pyrrole-2-carboxamide]	0.82	1.64	–	0.66	14	–
O=C(CCCCCNC(=O)c1[nH]c(-c2ccc(O)cc2)cc1-c1ccsc1)NO [Example 6, N-(5-(hydroxycarbamoyl)pentyl)-5-(4-hydroxyphenyl)-3-(3-thienyl)-1H-pyrrole-2-carboxamide]	1.02	1.83	–	1.02	43	–

Further lines, results first:

IC50 (SK-MEL-5) [µM]	IC50 (NCI-H1703) [µM]	melting point [°C]	IC50 (BT474) [µM]	IC50 (Human HDAC5) [nM]	Selectivity against HDAC6 (IC50 HDACx/IC50 HDAC6) HDAC5 (Human HDAC5; IC50 HDAC5/IC50 HDAC6)	SMILES
–	–	–	–	655	32.7	COc1ccc(-c2cc(-c3ccccc3)[nH]c2C(=O)NCCCCCC(=O)NO)cc1 [Compound A, N-[6-(hydroxyamino)-6-oxohexyl]-3-(4-methoxyphenyl)-5-phenyl-1H-pyrrole-2-carboxamide, reference compound]
1.87	2.06	224 to 225	3.49	–	–	O=C(CCCCCNC(=O)c1[nH]c(-c2ccc(O)cc2)cc1-c1ccccc1)NO [Example 2, N-(6-(hydroxyamino)-6-oxohexyl)-5-(4-hydroxyphenyl)-3-phenyl-1H-pyrrole-2-carboxamide]
